Consider 3 compounds from paper PMC12535076, “Neurotherapeutic effects of Vutiglabridin as a Paraoxonase-2 modulator in preclinical models of Parkinson’s disease” (Molecular Neurodegeneration, 2025).

For test [1], the target named is T1, MAO-B (Homo sapiens, UniProt P27338).
T1 sequence (P27338 1-520): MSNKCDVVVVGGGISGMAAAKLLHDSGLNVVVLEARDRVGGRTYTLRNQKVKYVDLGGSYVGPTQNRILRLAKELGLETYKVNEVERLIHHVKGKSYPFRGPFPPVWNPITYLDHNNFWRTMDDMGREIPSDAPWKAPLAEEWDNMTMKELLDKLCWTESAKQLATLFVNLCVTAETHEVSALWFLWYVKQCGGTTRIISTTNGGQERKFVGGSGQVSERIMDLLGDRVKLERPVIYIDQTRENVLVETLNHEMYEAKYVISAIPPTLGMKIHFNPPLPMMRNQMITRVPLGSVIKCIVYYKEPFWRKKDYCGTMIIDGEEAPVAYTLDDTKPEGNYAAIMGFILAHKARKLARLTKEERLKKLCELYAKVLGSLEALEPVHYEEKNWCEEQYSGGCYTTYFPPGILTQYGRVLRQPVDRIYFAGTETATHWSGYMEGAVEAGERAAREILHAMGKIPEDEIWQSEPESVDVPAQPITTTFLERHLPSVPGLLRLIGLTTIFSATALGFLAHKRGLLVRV
As to the kind of experiment: HRP/Amplex red based MAO-B enzyme activity assay. Particulars: read-out: IC50, MAO-B assay, HRP/AR method. In kind it is biochemical. How it is done:
(§1) MAO-A or MAO-B enzyme solutions were prepared by diluting 10 µL of a 2.5 mg/mL MAO-A or MAO-B stock into 10 mL of 50 mM sodium phosphate buffer (pH 7.4). A substrate assay mixture was then prepared by combining benzylamine (for MAO-B) or tyramine (for MAO-A) from a 100 mM stock (200 µL in 10 mL phosphate buffer, final concentration 1 mM) with 100 µL of a 20 mM AR reagent stock (final concentration 0.1 mM) and 100 µL of a 200 U/mL HRP stock (final concentration 1 U/mL) in 10 mL phosphate buffer. […] Next, 50 µL of the substrate assay mixture was added, and the reaction was carried out at 37 °C for 60 min. The production of resorufin was quantified by fluorescence measurement (excitation at 540 nm and emission at 580 nm).

Test [2] addresses T1, MAO-B. Description: ROS Glo based MAO-B enzyme activity assay. Format: biochemical. Particulars: read-out: IC50, MAO-B assay, ROS-Glo method. How it is done:
An enzyme solution was prepared by diluting 10 µL of a 2.5 mg/mL MAO-A or MAO-B stock in 10 mL of 50 mM sodium phosphate buffer (pH 7.4). A substrate solution was prepared by diluting 200 µL of a 100 mM benzylamine (or tyramine) stock in 10 mL phosphate buffer to achieve a final concentration of 1 mM. For each 96-well plate experiment, 12.5 µL of a 1× H2O2 probe solution was added to 1 mL of the probe dilution buffer from the ROS Glo™ kit. Separately, 40 µL of cysteine and enhancer were diluted into 4 mL of Luciferin solution. In each well, 49 µL of the enzyme solution was dispensed, followed by 1 µL of the test compound, and incubated for 30 min. […] Next, 10 µL of the H2O2 probe solution was added and incubated for 15 min. […] Luminescence was subsequently recorded using a microplate luminescence reader (SpectraMax i3, Molecular Devices).

In test [3] the target is T2, MAO-A (Homo sapiens, UniProt P21397).
T2 sequence (P21397 1-527): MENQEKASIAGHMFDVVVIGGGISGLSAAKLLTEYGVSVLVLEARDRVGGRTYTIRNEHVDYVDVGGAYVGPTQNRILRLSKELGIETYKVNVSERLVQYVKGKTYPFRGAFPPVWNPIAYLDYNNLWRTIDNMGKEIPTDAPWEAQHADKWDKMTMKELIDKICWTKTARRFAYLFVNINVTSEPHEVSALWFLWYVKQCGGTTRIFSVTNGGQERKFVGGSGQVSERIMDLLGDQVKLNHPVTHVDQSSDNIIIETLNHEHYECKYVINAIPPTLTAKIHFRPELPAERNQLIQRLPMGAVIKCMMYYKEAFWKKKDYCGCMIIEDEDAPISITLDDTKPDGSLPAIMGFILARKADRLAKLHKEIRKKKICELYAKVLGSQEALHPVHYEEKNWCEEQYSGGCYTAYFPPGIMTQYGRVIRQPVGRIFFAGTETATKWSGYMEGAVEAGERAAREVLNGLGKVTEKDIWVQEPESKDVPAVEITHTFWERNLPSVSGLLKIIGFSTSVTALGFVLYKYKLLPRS
Description: HRP/Amplex red based MAO-A enzyme activity assay. Format: biochemical. The following applies: read-out: IC50, MAO-A assay, HRP/AR method. The method, then:
as §1

Test [4] concerns the target T2, MAO-A. As to the kind of experiment: ROS Glo based MAO-A enzyme activity assay. In kind it is biochemical. The following applies: printed as 'separate MAO-B assay' within the MAO-A panel (b); read-out: IC50, ROS-Glo method, panel (b). How it is done: An enzyme solution was prepared by diluting 10 µL of a 2.5 mg/mL MAO-A or MAO-B stock in 10 mL of 50 mM sodium phosphate buffer (pH 7.4). A substrate solution was prepared by diluting 200 µL of a 100 mM benzylamine (or tyramine) stock in 10 mL phosphate buffer to achieve a final concentration of 1 mM. For each 96-well plate experiment, 12.5 µL of a 1× H2O2 probe solution was added to 1 mL of the probe dilution buffer from the ROS Glo™ kit. Separately, 40 µL of cysteine and enhancer were diluted into 4 mL of Luciferin solution. In each well, 49 µL of the enzyme solution was dispensed, followed by 1 µL of the test compound, and incubated for 30 min. Then, 49 µL of the substrate solution was added, and the reaction proceeded at 37 °C for 60 min. Next, 10 µL of the H2O2 probe solution was added and incubated for 15 min. Subsequently, 40 µL of a luciferin solution containing cysteine and an enhancer was added, followed by an additional 30-minute incubation at 37 °C. Luminescence was subsequently recorded using a microplate luminescence reader (SpectraMax i3, Molecular Devices).

In test [5] the test system is MPTP-injected C57BL/6 mice. As to the kind of experiment: MPTP-injected sub-acute PD mouse model (pole test, rotarod, TH immunohistochemistry). In kind it is in vivo. How it is done: Animals were allowed at least 1 week of acclimatization before being subjected to the study and were housed in a regulated environment with a 12-h/12-h light/dark cycle. Food and water were provided ad libitum. The animal experiment was carried out in accordance with the National Institutes of Health Guide for the Care and Use of Laboratory Animals (NIH Publications No. 80–23; revised 1996). All procedures for handling mice were carried out in accordance with “Principles of Laboratory Animal Care” and the Animal Care and Use guidelines of Kyung Hee University, Seoul, Korea (KHSASP-20-163).
MPTP was dissolved in distilled water and injected intraperitoneally for five days from day 10 of the 21-day experiment period. Vuti or rasagiline was administered via oral gavage for 21 days. Vehicles for both Vuti and MPTP (distilled water) were administered to all mice. Mice were randomly divided for all studies. For the first set of studies shown in Fig. 3, each group consisted of 5 animals.
To determine forelimb and hindlimb motor coordination and balance, we performed the rotarod test as described previously. Also, the pole test was performed to measure bradykinesia. For the rotarod test, the animals were pre-trained on the rotating bar of a rotarod unit set (LE 8500, Letica, Spain) on days 18 and 19 before the test on day 20. During pre-training, three trials per day were performed (5 rpm rotation speed on the first day, 15 rpm rotation speed on the second day). Mice were kept on the rotating bar (7.3-cm diameter) for 5 min on each trial. On day 20, the time spent on the rotating bar at 20 rpm, which was defined as the latent period, was recorded. Performance was recorded as 300 s if the latent period exceeded 300 s. Mice had at least 5 min of rest between trials to reduce stress and fatigue. Each animal underwent three test trials, and the mean of the test results was subjected to statistical analysis. For the pole test, mice were held on the top of the pole (diameter 8 mm, height 55 cm, with a rough surface). The time to land down and place four fee on the floor was recorded as the time for locomotion activity (T-LA).
On day 21, mice were anesthetized with sodium pentobarbital (50 mg/kg intraperitoneally) and transcardially perfused with saline containing 0.5% sodium nitrate and heparin (10 U/mL) and then fixed with 4% PFA in 0.1 M phosphate-buffer (PB, pH 7.2). Dissected brains were post-fixed overnight in buffered 4% PFA at 4 °C and stored in a 30% sucrose solution until they sank. Brains were cryosectioned into 30 μm thick coronal sections in a Cryostat (Microsystems AG, Leica, Wetzlar, Germany) and stored until use at 4℃ in a cryoprotectant (25% ethylene glycol, 25% glycerol, 0.2 M PB, and water). All sections were collected in six separate series and processed for immunostaining.
Free-floating brain sections were processed with the avidin-biotin peroxidase complex (ABC) complex (Vector Laboratories, Burlingame, CA, USA) method. Briefly, brain sections were incubated with primary rabbit anti-TH antibodies (1:1000; Pel-Freez Biologicals, Rogers, AR, USA) overnight at 4 °C, with biotinylated anti-rabbit IgG (1:400) for 1 h at room temperature, and then with the ABC solution (1:1:200) for 1 h at room temperature. The immunoperoxidase signals of TH was detected by incubating sections with 0.5 mg/ml 3,3′-diaminobenzidine (Sigma, St. Louis, MO, USA) in 0.1 M PB containing 0.003% H2O2. Stained brain sections were mounted on gelatin-coated slides and imaged under a bright-field microscope (Olympus Optical, Tokyo, Japan). TH-positivity in the ST was measured by the optical density of TH-positive fibers at x40 magnification using ImageJ software (National Institutes of Health, Bethesda, MD, USA). TH-positive cells in the SNpc in brain tissue Sect. (5 sections/series) were counted at x100 magnification as previously described. […]

Where [6] appears, read: MPTP mice, Vuti 1, 50, 100 mg/kg/day or rasagiline 0.1 mg/kg/day orally for 21 days.

Take `CC1(C)C=Cc2c(ccc3c2OC[C@@H](c2ccc(O)cc2O)C3)O1` [Glabridin]: the IC50 in test [1] is 7.29 µM; in test [2], 15.4 µM; in test [3], 26.8 µM; in test [4] it was 12 µM.
For `CN1CC=C(c2ccccc2)CC1` [MPTP, 1-methyl-4-phenyl-1,2,3,6-tetrahydropyridine, reference compound], the “latency time to reach the floor (T-LA) in the pole test” value in test [5] (MPTP 30 mg/kg/day i.p. for 5 days, no drug, vs 5.2 ± 0.9 s vehicle-only) was determined as 9.6 ± 2.1 s. Moreover, the “latency to fall in the rotarod test” value in test [5] (MPTP 30 mg/kg/day i.p. for 5 days, no drug, vs 196.4 ± 77.3 s vehicle-only) is listed as 63.5 ± 34.5 s.
Consider `C#CCN[C@@H]1CCc2ccccc21` [rasagiline, Rasagiline, reference compound], for which, in test [5] (setting [6]), the “effect on T-LA in the pole test” value is “significantly normalized” and the “effect on latency to fall in the rotarod test” value was “significantly normalized”.
